# Activity calls are given as the source filed them.
# Assays:
# [1] = A cytotoxicity screen of small molecule inhibitors of the PhoP region in Salmonella typhi identified in the primary screen. [Related pubchem assays: 1850, 1864, 1985 ]; format: functional
# [2] = Luminescence Cell-Based Dose Retest to Confirm Inhibitors of Cancer Stem Cells. [Related pubchem assays (depositor defined):AID2717, AID2721]; format: functional; conditions: Homo sapiens
# [3] = target: FAD-linked sulfhydryl oxidase ALR (Homo sapiens, UniProt P55789); experiment: ALR-catalysed DTT oxidation blockers – biochemical, H2O2 detection, luminescence, cherry-pick, dose response (AID 493248)
# [4] = M. tuberculosis H37Rv growth inhibitors, H37Rv strain (AID 1626); format: functional
# [5] = Luminescence Cell-Based Dose Response to Identify Activators of 5'UTR Stem-Loop Driven Prion Protein mRNA Translation in H4-C Neuroglioblastoma Cells. [Related pubchem assays: 1829 (Project Summary), 1814 (Primary HTS)]; format: functional
# [6] = Luminescence Cell-Based Dose Confirmation HTS to Identify Activators of 5'UTR Stem-Loop Driven Alpha-Synuclein mRNA Translation in H4 Neuroglioblastoma Cells. [Related pubchem assays: 1829 (Project Summary), 1814 (Primary HTS)]; format: functional
# [7] = Luminescence Cell-Based Dose Response HTS to Identify Activators of Luciferase Translation or Activity in H4 […] Cells. [Related pubchem assays: 1829 (Project Summary), 1814 (Primary HTS)]; format: functional
# [8] = tested on: H4; experiment: Luminescence Cell-Based Dose Response HTS to Identify Activators of 5'UTR Stem-Loop Driven Prion Protein mRNA Translation in H4 Neuroglioblastoma Cells. [Related pubchem assays: 1829 (Project Summary), 1814 (Primary HTS)]; format: functional; conditions: Homo sapiens
# [9] = Luminescence Cell-Based Dose Response to Identify Activators of Luciferase Translation or Activity in H4-C Neuroglioblastoma Cells. [Related pubchem assays: 1829 (Project Summary), 1814 (Primary HTS)]; format: functional
# [10] = Luminescence Cell-Based Dose Confirmation to Identify Activators of 5'UTR Stem-Loop Driven Alpha-Synuclein mRNA Translation in H4 Neuroglioblastoma Cells. [Related pubchem assays: 1829 (Project Summary), 1814 (Primary HTS)]; format: functional
# [11] = target: T1, Caspase-3 (Homo sapiens, UniProt P42574); format: functional;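 also: Dose-response selectivity test against caspase-3 for candidate inhibitors of sentrin-specific proteases (SENPs)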
# T1 sequence (P42574 whole entry): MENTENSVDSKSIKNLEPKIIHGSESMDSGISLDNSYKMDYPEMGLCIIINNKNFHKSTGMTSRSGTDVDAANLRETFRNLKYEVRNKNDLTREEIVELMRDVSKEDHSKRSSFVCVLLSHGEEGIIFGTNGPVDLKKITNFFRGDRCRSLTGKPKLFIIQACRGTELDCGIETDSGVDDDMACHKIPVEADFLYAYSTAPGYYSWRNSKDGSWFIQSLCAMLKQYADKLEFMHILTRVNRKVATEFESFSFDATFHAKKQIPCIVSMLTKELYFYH
# [12] = target: T2, Sentrin-specific protease 7 (Homo sapiens, UniProt Q9BQF6); format: functional;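 also: Luminescence-based dose-response confirmation of ultra-high-throughput screening hits, measuring inhibition of SENP7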
# T2 sequence (Q9BQF6 whole entry): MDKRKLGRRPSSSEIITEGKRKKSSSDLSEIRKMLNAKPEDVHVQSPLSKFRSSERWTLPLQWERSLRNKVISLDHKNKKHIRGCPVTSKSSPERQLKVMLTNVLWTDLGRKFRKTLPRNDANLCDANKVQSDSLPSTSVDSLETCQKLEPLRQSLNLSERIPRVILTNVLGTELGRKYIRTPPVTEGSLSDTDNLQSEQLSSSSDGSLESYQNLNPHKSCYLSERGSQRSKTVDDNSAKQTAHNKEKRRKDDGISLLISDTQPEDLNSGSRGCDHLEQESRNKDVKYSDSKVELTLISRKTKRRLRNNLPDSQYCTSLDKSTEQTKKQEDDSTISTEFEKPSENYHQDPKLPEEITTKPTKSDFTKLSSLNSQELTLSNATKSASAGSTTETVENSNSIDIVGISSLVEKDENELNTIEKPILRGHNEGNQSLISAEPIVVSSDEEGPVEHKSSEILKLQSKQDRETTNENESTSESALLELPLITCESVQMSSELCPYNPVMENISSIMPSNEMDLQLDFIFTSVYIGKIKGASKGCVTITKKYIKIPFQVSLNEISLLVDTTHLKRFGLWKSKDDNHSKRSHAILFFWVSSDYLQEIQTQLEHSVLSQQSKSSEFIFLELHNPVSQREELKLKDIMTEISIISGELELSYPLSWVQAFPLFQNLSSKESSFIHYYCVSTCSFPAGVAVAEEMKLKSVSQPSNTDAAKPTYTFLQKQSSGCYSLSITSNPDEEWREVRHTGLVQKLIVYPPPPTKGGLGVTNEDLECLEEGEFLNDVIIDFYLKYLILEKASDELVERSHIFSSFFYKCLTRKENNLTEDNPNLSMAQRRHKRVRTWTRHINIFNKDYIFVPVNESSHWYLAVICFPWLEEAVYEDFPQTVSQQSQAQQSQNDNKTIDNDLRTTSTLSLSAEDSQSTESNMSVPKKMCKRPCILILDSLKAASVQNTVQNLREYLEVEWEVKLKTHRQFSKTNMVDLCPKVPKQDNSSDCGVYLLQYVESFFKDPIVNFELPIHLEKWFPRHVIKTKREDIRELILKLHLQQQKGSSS
# [13] = target: T3, Sentrin-specific protease 6 (Homo sapiens, UniProt Q9GZR1); format: functional;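 also: Luminescence-based dose-response confirmatory assay of SENP6 inhibition, following up an ultra-high-throughput screen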
# T3 sequence (Q9GZR1 whole entry): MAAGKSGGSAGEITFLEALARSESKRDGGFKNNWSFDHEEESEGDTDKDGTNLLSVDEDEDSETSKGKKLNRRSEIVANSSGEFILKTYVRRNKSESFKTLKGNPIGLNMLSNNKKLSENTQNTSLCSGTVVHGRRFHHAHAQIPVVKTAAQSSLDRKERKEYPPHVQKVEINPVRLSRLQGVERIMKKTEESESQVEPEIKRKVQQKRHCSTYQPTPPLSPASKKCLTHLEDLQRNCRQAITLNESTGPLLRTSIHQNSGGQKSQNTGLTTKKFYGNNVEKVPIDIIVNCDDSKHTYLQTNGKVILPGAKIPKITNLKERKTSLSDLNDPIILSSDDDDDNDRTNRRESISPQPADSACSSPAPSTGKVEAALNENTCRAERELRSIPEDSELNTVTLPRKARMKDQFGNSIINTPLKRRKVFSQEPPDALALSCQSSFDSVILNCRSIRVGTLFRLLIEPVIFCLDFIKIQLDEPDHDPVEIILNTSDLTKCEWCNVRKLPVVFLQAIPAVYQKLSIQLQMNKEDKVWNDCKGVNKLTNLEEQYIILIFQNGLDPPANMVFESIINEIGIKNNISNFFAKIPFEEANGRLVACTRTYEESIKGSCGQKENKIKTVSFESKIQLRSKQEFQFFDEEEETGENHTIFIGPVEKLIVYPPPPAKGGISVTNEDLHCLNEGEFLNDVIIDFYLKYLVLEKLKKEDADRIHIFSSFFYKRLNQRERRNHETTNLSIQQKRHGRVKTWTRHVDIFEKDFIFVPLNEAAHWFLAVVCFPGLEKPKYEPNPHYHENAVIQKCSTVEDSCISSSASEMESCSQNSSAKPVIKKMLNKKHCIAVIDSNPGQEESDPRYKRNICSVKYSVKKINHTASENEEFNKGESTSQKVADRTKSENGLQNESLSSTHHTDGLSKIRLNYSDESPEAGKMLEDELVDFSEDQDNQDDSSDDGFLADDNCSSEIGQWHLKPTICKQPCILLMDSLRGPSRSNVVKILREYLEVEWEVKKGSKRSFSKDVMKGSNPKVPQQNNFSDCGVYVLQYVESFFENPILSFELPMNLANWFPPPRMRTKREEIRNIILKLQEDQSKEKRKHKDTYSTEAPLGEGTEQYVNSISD
# [14] = target: T4, Sentrin-specific protease 8 (Homo sapiens, UniProt Q96LD8); format: functional;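 also: luminescence read-out of SENP8 inhibition, dose-response confirmation following an ultra-high-throughput screen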
# T4 sequence (Q96LD8 whole entry): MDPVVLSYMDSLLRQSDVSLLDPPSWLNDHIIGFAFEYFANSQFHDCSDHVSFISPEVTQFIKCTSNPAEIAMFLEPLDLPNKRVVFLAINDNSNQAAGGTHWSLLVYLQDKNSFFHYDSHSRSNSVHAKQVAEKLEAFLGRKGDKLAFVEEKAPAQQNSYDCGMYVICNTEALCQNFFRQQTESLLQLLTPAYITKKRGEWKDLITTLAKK
# [15] = target: T5, Mannose-6-phosphate isomerase (Homo sapiens, UniProt P34949); experiment: MPI enzyme activity inhibition – biochemical, fluorescence intensity, coupled assay, primary screen (AID 1209)
# T5 sequence (P34949 whole entry): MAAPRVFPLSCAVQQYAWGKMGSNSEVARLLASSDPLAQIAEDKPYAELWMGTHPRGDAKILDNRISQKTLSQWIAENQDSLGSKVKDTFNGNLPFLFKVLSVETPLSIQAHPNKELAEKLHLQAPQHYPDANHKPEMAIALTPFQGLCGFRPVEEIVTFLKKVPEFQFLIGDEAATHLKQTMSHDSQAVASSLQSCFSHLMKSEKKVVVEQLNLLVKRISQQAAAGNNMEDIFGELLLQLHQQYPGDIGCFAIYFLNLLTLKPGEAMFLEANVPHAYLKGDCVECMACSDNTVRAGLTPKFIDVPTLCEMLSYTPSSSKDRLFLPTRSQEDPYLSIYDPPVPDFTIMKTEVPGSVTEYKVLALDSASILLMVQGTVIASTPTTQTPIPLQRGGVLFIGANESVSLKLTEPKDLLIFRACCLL
# [16] = target: T5, Mannose-6-phosphate isomerase; experiment: MPI inhibition at elevated mannose 6-phosphate – biochemical, fluorescence intensity, high mannose 6-phosphate, primary screen (AID 1220)
# Chain of FAD-linked sulfhydryl oxidase ALR (P55789 whole entry): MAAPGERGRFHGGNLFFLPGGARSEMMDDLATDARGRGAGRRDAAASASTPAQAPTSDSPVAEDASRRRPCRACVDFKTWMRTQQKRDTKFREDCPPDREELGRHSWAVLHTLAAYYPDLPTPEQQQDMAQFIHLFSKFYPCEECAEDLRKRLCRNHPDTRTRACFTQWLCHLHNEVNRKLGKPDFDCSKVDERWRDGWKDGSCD
smiles,measurement,setting,value
O=C(NCc1ccco1)c1ccc2c(c1)N(Cc1ccccc1)CCS2,EC50,[1],> 50 µM (active)
same,AC50,[2],11.3 µM (active)
same,AC50,[3],81.2 µM (active)
CCOC(=O)c1ccc(NC(C)=C2C(=O)NC(=O)NC2=O)cc1,IC50,[4],> 100 µM (active)
CCCCC(=O)Nc1ccc2c(c1)oc1ccccc12,IC50,[4],> 100 µM (active)
COc1ccc(NC2=CC(c3ccc(OC)cc3)N(c3ccc(OC)cc3)C2=O)cc1 (centres undefined),IC50,[4],> 100 µM (active)
O=C1c2ccccc2C(=O)N1CCSc1ccccc1,EC50,[5],1.41 µM (active)
same,EC50,[6],21.9 µM (active)
same,EC50,[7],0.18 µM (active)
same,EC50,[8],< 0.1 µM (active)
same,EC50,[9],0.42 µM (active)
same,EC50,[10],0.279 µM (active)
same,IC50,[11],14.5 µM (active)
same,IC50,[12],9.56 µM (active)
same,IC50,[13],30.4 µM (active)
same,IC50,[14],35 µM (active)
CC(C)CCSc1cc(NCCO)c([N+](=O)[O-])c2nonc12,IC50,[15],> 50 µM (not active)
same,IC50,[16],> 50 µM (not active)
c1ccc(CSCc2cn3ccsc3n2)cc1,EC50,[6],0.562 µM (active)
same,EC50,[7],40.7 µM (active)
same,EC50,[8],7.85 µM (active)
same,IC50,[15],> 50 µM (not active)
same,IC50,[16],> 50 µM (not active)
C=CCSc1nnc(NC(=O)CSc2nc3ccccc3o2)s1,EC50,[1],> 50 µM (active)

# From ChEMBL document CHEMBL1201862, “PubChem BioAssay data set” (2004)
